Data from PubChem BioAssay AID256 (DTP/NCI, 2004).
Several values for one entry are separate records, joined by “and”; a condition that tells them apart may be missing. Equal values may be shown once. Inconclusive results and toxic doses are left out. Rule for the calls: active = survival T/C of 150% or more; inactive = T/C below 125% in these data.

System: CD2F1 mice, L1210 leukemia ip, survival T/C
Test: NCI In Vivo Anticancer Drug Screen. Data for tumor model L1210 Leukemia (intraperitoneal) in CD2F1 (CDF1) mice
Conditions: higher = longer survival
Method in brief: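 Compound-dosed mice with transplantable tumor versus matched vehicle controls; endpoint ratio T/C reported.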

[1] = endpoint: mean survival time, dose: 100.0 mg/kg/injection, schedule: Q01DX001 (ip), vehicle: saline
[2] = endpoint: mean survival time, dose: 200.0 mg/kg/injection, schedule: Q01DX001 (ip), vehicle: saline
[3] = endpoint: mean survival time, dose: 400.0 mg/kg/injection, schedule: Q01DX001 (ip), vehicle: saline
[4] = endpoint: mean survival time, dose: 100.0 mg/kg/injection, schedule: Q04DX003 (ip), vehicle: saline with Tween-80
[5] = endpoint: mean survival time, dose: 200.0 mg/kg/injection, schedule: Q04DX003 (ip), vehicle: saline with Tween-80
[6] = endpoint: mean survival time, dose: 400.0 mg/kg/injection, schedule: Q04DX003 (ip), vehicle: saline with Tween-80
[7] = endpoint: mean survival time, dose: 100.0 mg/kg/injection, schedule: Q01DX009 (ip), vehicle: saline with Tween-80
[8] = endpoint: mean survival time, dose: 200.0 mg/kg/injection, schedule: Q01DX009 (ip), vehicle: saline with Tween-80
[9] = endpoint: mean survival time, dose: 12.5 mg/kg/injection, schedule: Q01DX005 (ip), vehicle: other
[10] = endpoint: mean survival time, dose: 25.0 mg/kg/injection, schedule: Q01DX005 (ip), vehicle: other
[11] = endpoint: mean survival time, dose: 50.0 mg/kg/injection, schedule: Q01DX005 (ip), vehicle: other
[12] = endpoint: mean survival time, dose: 400.0 mg/kg/injection, schedule: Q01DX009 (ip), vehicle: saline with Tween-80

Measured: T/C

N=c1nc2n(cc1F)[C@@H]1O[C@H](CO)[C@@H](O)[C@@H]1O2
active: endpoint: mean survival time, dose: 25.0 mg/kg/injection, schedule: Q01DX009 (ip), vehicle: saline 155 % of control | endpoint: mean survival time, dose: 50.0 mg/kg/injection, schedule: Q01DX009 (ip), vehicle: saline 162 % of control and 188 % of control | endpoint: mean survival time, dose: 68.0 mg/kg/injection, schedule: Q04DX003 (ip), vehicle: saline 150 % of control | endpoint: mean survival time, dose: 100.0 mg/kg/injection, schedule: Q01DX009 (ip), vehicle: saline 193 % of control and 250 % of control | endpoint: mean survival time, dose: 200.0 mg/kg/injection, schedule: Q01DX009 (ip), vehicle: saline 224 % of control and 303 % of control | endpoint: mean survival time, dose: 400.0 mg/kg/injection, schedule: Q01DX009 (ip), vehicle: saline 305 % of control and 331 % of control | endpoint: mean survival time, dose: 800.0 mg/kg/injection, schedule: Q01DX009 (ip), vehicle: saline 239 % of control | endpoint: median survival time, dose: 256.0 mg/kg/injection, schedule: Q01DX005 (ip), vehicle: saline 216 % of control | endpoint: median survival time, dose: 512.0 mg/kg/injection, schedule: Q01DX005 (ip), vehicle: saline 349 % of control
inactive: endpoint: mean survival time, dose: 17.0 mg/kg/injection, schedule: Q04DX003 (ip), vehicle: saline 119 % of control | [1] 110 % of control | [2] 117 % of control | [3] 120 % of control | endpoint: median survival time, dose: 16.0 mg/kg/injection, schedule: Q01DX005 (ip), vehicle: saline 124 % of control

CNC(=O)Sc1nnnc2ccccc12
inactive: [4] 101 % of control | [5] 93 % of control | [6] 98 % of control

C=CCOc1c(C)cc(C)cc1/C=C/C
inactive: [7] 94 % of control | [8] 89 % of control

S=C(Nc1ccccc1)NC1CCCCC1
inactive: [4] 100 % of control | [5] 102 % of control | [6] 97 % of control

CN(CC[NH-])CC[NH-].[I][Pt]
inactive: endpoint: mean survival time, dose: 12.5 mg/kg/injection, schedule: Q04DX003 (ip), vehicle: saline with Tween-80 100 % of control | endpoint: mean survival time, dose: 25.0 mg/kg/injection, schedule: Q04DX003 (ip), vehicle: saline with Tween-80 94 % of control | endpoint: mean survival time, dose: 50.0 mg/kg/injection, schedule: Q04DX003 (ip), vehicle: saline with Tween-80 98 % of control | [4] 100 % of control | [5] 94 % of control

O=c1[nH]c(=O)n(C2OC(CO)C3OP(=O)(C45CC6CC(CC(C6)C4)C5)OC32)cc1Br (centres undefined)
inactive: [9] 93 % of control | [10] 97 % of control | [11] 93 % of control | endpoint: mean survival time, dose: 100.0 mg/kg/injection, schedule: Q01DX005 (ip), vehicle: other 93 % of control | endpoint: mean survival time, dose: 200.0 mg/kg/injection, schedule: Q01DX005 (ip), vehicle: other 93 % of control

[CH3][Sn]1([CH3])[O]C2C(CO)OC(n3cnc4c(N)ncnc43)C2[O]1 (centres undefined)
inactive: [9] 98 % of control | [10] 92 % of control | [11] 97 % of control

Cc1ccc(NC(=O)N(C)N=O)cc1
inactive: endpoint: mean survival time, dose: 89.0 mg/kg/injection, schedule: Q01DX001 (ip), vehicle: other 89 % of control | endpoint: mean survival time, dose: 133.0 mg/kg/injection, schedule: Q01DX001 (ip), vehicle: other 87 % of control | endpoint: mean survival time, dose: 200.0 mg/kg/injection, schedule: Q01DX001 (ip), vehicle: other 89 % of control | endpoint: mean survival time, dose: 300.0 mg/kg/injection, schedule: Q01DX001 (ip), vehicle: other 93 % of control

COc1ccc(/C=N\NC(=O)c2ccccc2)cc1
inactive: [7] 95 % of control | [8] 95 % of control | [12] 86 % of control

CC1=NC(C#N)=C(C#N)N=C(C)C1
inactive: endpoint: mean survival time, dose: 10.0 mg/kg/injection, schedule: Q04DX003 (ip), vehicle: Klucel (hydroxypropylcellulose) (HPC) 102 % of control | endpoint: mean survival time, dose: 20.0 mg/kg/injection, schedule: Q04DX003 (ip), vehicle: Klucel (hydroxypropylcellulose) (HPC) 98 % of control | endpoint: mean survival time, dose: 40.0 mg/kg/injection, schedule: Q04DX003 (ip), vehicle: Klucel (hydroxypropylcellulose) (HPC) 106 % of control

C=C1[C@@H](O)[C@]2(O)OC[C@@]34[C@H]1[C@@H](OC(=O)C(C)CC)C(=O)O[C@@H]3C[C@H]1C(C)=CC(=O)[C@@H](O)[C@]1(C)[C@@H]24 (some centres undefined)
inactive: endpoint: mean survival time, dose: 0.25 mg/kg/injection, schedule: Q01DX009 (ip), vehicle: saline with Tween-80 102 % of control | endpoint: mean survival time, dose: 0.5 mg/kg/injection, schedule: Q01DX009 (ip), vehicle: saline with Tween-80 105 % of control | endpoint: mean survival time, dose: 1.0 mg/kg/injection, schedule: Q01DX009 (ip), vehicle: saline with Tween-80 105 % of control | endpoint: mean survival time, dose: 2.0 mg/kg/injection, schedule: Q01DX009 (ip), vehicle: saline with Tween-80 108 % of control

O=C(O)CCC(=O)c1cccc(O)c1
inactive: [1] 103 % of control | [2] 104 % of control | [3] 103 % of control

O=[N+]([O-])c1ccc2nc(CC(O)(C(F)(F)F)C(F)(F)F)ccc2c1
inactive: [7] 112 % of control | [4] 102 % of control | [8] 110 % of control | [5] 97 % of control | [12] 101 % of control | [6] 113 % of control

COc1ccc(CCNC(=O)CCN2C(=O)CCC2=O)cc1OC
inactive: [7] 98 % of control | endpoint: mean survival time, dose: 100.0 mg/kg/injection, schedule: Q04DX003 (ip), vehicle: saline sonified 101 % of control | [8] 96 % of control | endpoint: mean survival time, dose: 200.0 mg/kg/injection, schedule: Q04DX003 (ip), vehicle: saline sonified 101 % of control | [12] 100 % of control | endpoint: mean survival time, dose: 400.0 mg/kg/injection, schedule: Q04DX003 (ip), vehicle: saline sonified 98 % of control
